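Five concentrations, 48 hours, 96-well plates. Abbreviation: GI50, concentration required for 50% inhibition of growth. TGI: total growth inhibition.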
How the values were obtained:
Assay in all cases: NCI tumour cell line growth inhibition, 48 h
SNB-19 CNS = test system: SNB-19 CNS
NCI/ADR-RES ovarian = test system: NCI/ADR-RES ovarian
T-47D breast = test system: T-47D breast
BT-549 breast = test system: BT-549 breast
MDA-MB-231 breast = test system: MDA-MB-231 breast
DU-145 prostate = test system: DU-145 prostate
PC-3 prostate = test system: PC-3 prostate
SR leukemia = test system: SR leukemia
M19-MEL melanoma = test system: M19-MEL melanoma
DMS 114 small cell lung = test system: DMS 114 small cell lung
SNB-78 CNS = test system: SNB-78 CNS
DLD-1 colon = test system: DLD-1 colon
KM20L2 colon = test system: KM20L2 colon

Row | SMILES | TGI (SNB-19 CNS) [µM] | TGI (NCI/ADR-RES ovarian) [µM] | TGI (T-47D breast) [µM] | TGI (BT-549 breast) [µM] | TGI (MDA-MB-231 breast) [µM] | TGI (DU-145 prostate) [µM] | TGI (PC-3 prostate) [µM] | TGI (SR leukemia) [µM] | TGI (M19-MEL melanoma) [µM] | TGI (DMS 114 small cell lung) [µM] | TGI (SNB-78 CNS) [µM] | TGI (DLD-1 colon) [µM] | GI50 (SR leukemia) [µM] | GI50 (NCI/ADR-RES ovarian) [µM] | GI50 (T-47D breast) [µM] | GI50 (BT-549 breast) [µM] | GI50 (MDA-MB-231 breast) [µM] | GI50 (DU-145 prostate) [µM] | GI50 (PC-3 prostate) [µM] | TGI (KM20L2 colon) [µM]
1 | CC(C)c1cc(CN(C)C)c(O)c(C(C)(C)C)c1 | 53.4 | > 100 | 58.1 | > 100 | > 100 | > 100 | 56.7 | – | – | – | – | – | – | – | – | – | – | – | – | –
2 | C=CC[N+]12CN3CN(CN(C3)C1)C2 | > 100 | 62.7 | 76.5 | 61.3 | 91.3 | 46.9 | > 100 | – | – | – | – | – | – | – | – | – | – | – | – | –
3 | COc1ccc(C[C@H](N)C(=O)NC2C(CO)OC(n3cnc4c(N(C)C)ncnc43)C2O)cc1 (stereo partly specified) | – | – | – | – | – | – | – | 0.595 | 1.54 | 0.604 | 0.758 | – | – | – | – | – | – | – | – | –
4 | O=C1c2ccccc2C(=O)c2c(Nc3ccc4c5c(cccc35)C(=O)c3ccccc3-4)cccc21 | > 100 | > 100 | > 100 | > 100 | > 100 | > 100 | > 100 | > 100 | – | – | – | – | – | – | – | – | – | – | – | –
5 | CC(C)(C)N1C(C(=O)c2ccccc2)C1c1ccccc1 (stereo unspecified) | > 100 | – | – | – | – | – | – | – | > 100 | – | > 100 | > 100 | – | – | – | – | – | – | – | –
6 | O=c1ccc2nc(-c3ccccc3)nn(-c3ccccn3)c-2c1 | – | 67.1 | 6.79 | 56.8 | 29.5 | 30.7 | 35.7 | 18.5 | – | – | – | – | 2.97 | 19.6 | 2.03 | 20.8 | 9.87 | 15.5 | 13.2 | –
7 | N#CN=C(N)NC(=O)/C=C/C=C/c1ccc(Cl)cc1 | – | – | – | – | – | – | – | > 100 | > 100 | > 100 | > 100 | > 100 | – | – | – | – | – | – | – | > 100
8 | Nc1nc(N)c2c(n1)NC(=O)c1c(c3ccccc3n1Cc1ccc(Cl)cc1)C2 | > 100 | 85.6 | 43.9 | 49.2 | – | 29.3 | > 100 | – | – | – | – | – | – | – | – | – | – | – | – | –
